The test system of one series is HCoV-OC43. Kind of series: Antiviral cytopathicity assay, HCoV-OC43 in HEL 299 cells. The class given is cell-based. A general note: Damage to the host cells serves as the signal in cytopathic effect assays.
A short description of series [1]: in vitro. Particulars: dog.
Series [2] relates to respiratory syncytial virus (RSV) strain A Long. Kind of series: microbe, parasite or virus in culture. Particulars: human respiratory syncytial virus, HEL 299, read-out: EC50 (μM) RSV A Long, HEL 299. The format is cell-based.
Series [3] has as its system yellow fever virus (YFV) strain 17 D. The series is described as follows: microbe, parasite or virus in culture. The class given is cell-based. Particulars: Yellow fever virus, Huh-7, read-out: EC50 (μM) YFV 17D, Huh7.
The next series deals with a variety of RNA viruses. The format is cell-based.
The subject of series [4] is HEL299, Huh 7 and MDCK cells.
The nature of series [5]: in vitro. Particulars: human.
Series [6] in a line: in vitro. Particulars: human. The source holds these as a separate data set.
Setting [7] is: Betacoronavirus 1, OC43, HEL 299, read-out: EC50 (μM) HCoV-OC43, HEL 299.
Setting [8] is: Betacoronavirus 1, OC43, HEL 299 cells, reduction of virus-induced cytopathicity by 50%, read-out: EC50 (μM) HCoV-OC43, HEL 299.

SMILES strings stand for the structures. Like-named read-outs stand apart in the source and are kept apart here.

The EC50 is the concentration at which the effect is half-maximal. For the compound `CCCCCCc1ccc(Nc2cn(C3C=CC(O)C3)c(=O)[nH]c2=O)cc1` (racemic) [(±)-3d, (±)-1-(4′-Hydroxycyclopent-2′-en-1′-yl)-5-((4′-hexylphenyl)amino)uracil], the EC50 (in the series on HCoV-OC43 (setting [7]); in series [2]; in series [3]) was more than 100 µM each time. The compound also gave a CC50 in the series “in vitro [1]” of 30 µM. In addition, the “antiviral activity in the screening (in words)” value (from here on “antiviral activity”) in the series on a variety of RNA viruses was “did not show any activity”. For the same compound, in series [4], the “cytotoxicity in the tested cell lines (in words)” value (from here on “cytotoxicity”) was “marked cytotoxicity”.
As usually defined, the melting point is the temperature of the solid-liquid transition. Turning to `CC(C)(C)c1ccc(Nc2c[nH]c(=O)[nH]c2=O)cc1` [Compound 2e, 5-((4′-tert-Butylphenyl)amino)uracil], the melting point was in the range of 354.5 to 356.5 °C. Also, in the series with HCoV-OC43 (setting [8]), the concentration for a half-maximal effect (EC50) is more than 100 µM. In addition, the CC50 in the series “in vitro [5]” is more than 100 µM. The CC50 in “in vitro [1]” is more than 100 µM. In addition, in series [2], the EC50 was more than 100 µM. In the series “in vitro [6]”, this compound returned a CC50 of more than 100 µM. Also, the EC50 in series [3] is more than 100 µM.
With `O=c1[nH]c(=O)n(C2C=CC(O)C2)cc1N1CCCCCC1` (racemic) [(±)-3a, (±)-1-(4′-Hydroxycyclopent-2′-en-1′-yl)-5-(azepan-1″-yl)uracil], the EC50 (in the series on HCoV-OC43 (setting [7]); in series [2]; in series [3]) was more than 100 µM each time. The CC50 in “in vitro [5]”, in “in vitro [1]” and in the series “in vitro [6]” was more than 100 µM throughout.
For `O=c1c(Oc2ccc(Cl)cc2)cn(C2C=CC(O)C2)c(=O)n1C1C=CC(O)C1` (racemic) [(±)-11c, (±)-1-(4′-hydroxycyclopent-2′-en-1′-yl)-3-(4‴-hydroxycyclopent-2‴-en-1‴-yl)-5-(4″-chlorophenoxy)uracil], the EC50 (in the series on HCoV-OC43 (setting [7]); in [2]; in series [3]) was more than 100 µM throughout. In addition, the CC50 was more than 100 µM in “in vitro [5]”, 47.4 µM in “in vitro [1]” and more than 100 µM in the series “in vitro [6]”. Further, the “antiviral activity” value in the series on a variety of RNA viruses is “did not show any activity”. Moreover, the “cytotoxicity” value in series [4] is recorded as “marked cytotoxicity”.
As for `CC(C)(C)c1ccc(Oc2c[nH]c(=O)[nH]c2=O)cc1` [Compound 5d, 5-(4-tert-Butylphenoxy)uracil], the melting point lay in the range of 273 to 275 °C. Also, the EC50 in the series with HCoV-OC43 (setting [8]) is more than 100 µM. This compound also displayed a CC50 in the series “in vitro [5]” of more than 100 µM. The compound further returned a CC50 in “in vitro [1]” of more than 100 µM. The EC50 in [2] was more than 100 µM. For the same compound, the CC50 in “in vitro [6]” is more than 100 µM. The EC50 in [3] is more than 100 µM.
Regarding `CCCCOc1ccc(Oc2c[nH]c(=O)[nH]c2=O)cc1` [Compound 5b, 5-(4-Butoxyphenoxy)uracil], the melting point is 271 to 274 °C. The EC50 in the series with HCoV-OC43 (setting [8]) was more than 100 µM. This compound also came in with a CC50 in the series “in vitro [5]” of more than 100 µM. The same compound returned a CC50 in “in vitro [1]” of more than 100 µM. For the same compound, the EC50 in [2] is more than 100 µM. Further, the CC50 in “in vitro [6]” was more than 100 µM. In addition, the EC50 in [3] was more than 100 µM.
As to `O=c1[nH]c(=O)n(C2C=CC(O)C2)cc1Oc1ccc(Cl)cc1` (racemic) [(±)-10c, (±)-1-(4′-Hydroxycyclopent-2′-en-1′-yl)-5-(4″-chlorophenoxy)uracil], the EC50 (with HCoV-OC43 (setting [7]); in [2]; in series [3]) was more than 100 µM throughout. The CC50 in “in vitro [5]”, in the series “in vitro [1]” and in “in vitro [6]” was more than 100 µM in each case.
For `CC(C)(C)c1ccc(Nc2cn(C3C=CC(O)C3)c(=O)[nH]c2=O)cc1` (racemic) [(±)-3e, (±)-1-(4′-Hydroxycyclopent-2′-en-1′-yl)-5-((4″-tert-butyl)phenylamino)uracil], the EC50 (in the series with HCoV-OC43 (setting [7]); in series [2]; in [3]) was more than 100 µM each time. Also, the figures for the CC50 in the series “in vitro [5]”, in “in vitro [1]” and in the series “in vitro [6]” were more than 100 µM, 63 µM and more than 100 µM, respectively. Also, the “antiviral activity” value in the series with a variety of RNA viruses is recorded as “did not show any activity”. The “cytotoxicity” value in [4] is listed as “marked cytotoxicity”.
Turning to `CCCCOc1ccc(Oc2cn(C3C=CC(O)C3)c(=O)[nH]c2=O)cc1` (racemic) [(±)-10b, (±)-1-(4′-Hydroxycyclopent-2′-en-1′-yl)-5-(4″-butoxyphenoxy)uracil], the EC50 (in the series on HCoV-OC43 (setting [7]); in series [2]; in [3]) was more than 100 µM throughout. For the same compound, the CC50 in “in vitro [5]”, in “in vitro [1]” and in “in vitro [6]” was more than 100 µM each time.
`O=c1[nH]cc(Oc2ccc(Cl)cc2)c(=O)[nH]1` [Compound 5c, 5-(4-Chlorophenoxy)uracil] displayed a melting point of 331 to 333 °C. In addition, the concentration giving a half-maximal response (EC50) in the series with HCoV-OC43 (setting [8]) is more than 100 µM. The CC50 in the series “in vitro [5]” is more than 100 µM. The same compound had a CC50 in “in vitro [1]” of more than 100 µM. Besides, the EC50 in series [2] was more than 100 µM. This compound had a CC50 in “in vitro [6]” of more than 100 µM. The EC50 in series [3] was more than 100 µM.
In the case of `CC(C)(C)c1ccc(Oc2cn(C3C=CC(O)C3)c(=O)[nH]c2=O)cc1` (racemic) [(±)-10d, (±)-1-(4′-Hydroxycyclopent-2′-en-1′-yl)-5-(4″-(tert-butyl)phenoxy)uracil], the EC50 (with HCoV-OC43 (setting [7]); in series [2]; in [3]) was more than 100 µM in each case. Moreover, the CC50 in “in vitro [5]”, in “in vitro [1]” and in “in vitro [6]” was more than 100 µM each time.
`CCCCCCCc1ccc(Nc2cn(C3C=CC(O)C3)c(=O)n(C3C=CC(O)C3)c2=O)cc1` (racemic) [(±)-4f, (±)-1-(4′-hydroxycyclopent-2′-en-1′-yl)-3-(4‴-hydroxycyclopent-2‴-en-1‴-yl)-5-(-((4″-heptylphenyl)amino)uracil]: the EC50 (with HCoV-OC43 (setting [7]); in series [2]; in [3]) was more than 100 µM each time. In addition, the CC50 in “in vitro [5]”, in “in vitro [1]” and in the series “in vitro [6]” was more than 100 µM each time.
For `O=c1[nH]c(=O)n(C2C=CC(O)C2)cc1N1CCN(c2ccccc2)CC1` (racemic) [(±)-3b, (±)-1-(4′-Hydroxycyclopent-2′-en-1′-yl)-5-(4″-phenylpiperazin-1″-yl)uracil], the EC50 (in the series with HCoV-OC43 (setting [7]); in series [2]; in series [3]) was more than 100 µM each time. Further, the CC50 in the series “in vitro [5]”, in the series “in vitro [1]” and in “in vitro [6]” was more than 100 µM throughout.
`CC(C)c1ccc(Nc2cn(C3C=CC(O)C3)c(=O)[nH]c2=O)cc1` (racemic) [(±)-3g, (±)-1-(4′-Hydroxycyclopent-2′-en-1′-yl)-5-((4″-isopropylphenyl)amino)uracil]: the EC50 (in the series with HCoV-OC43 (setting [7]); in series [2]; in series [3]) was more than 100 µM throughout. The CC50 in “in vitro [5]”, in the series “in vitro [1]” and in “in vitro [6]” was more than 100 µM throughout.
`O=c1[nH]cc(N2CCN(c3ccccc3)CC2)c(=O)[nH]1` [Compound 2b, 5-(4-Phenylpiperazin-1-yl)uracil] came in with a melting point of 352 to 354.5 °C. In the series with HCoV-OC43 (setting [8]), the EC50 was more than 100 µM. The CC50 in the series “in vitro [5]” was more than 100 µM. Besides, the CC50 in “in vitro [1]” is more than 100 µM. For the same compound, in [2], the EC50 is more than 100 µM. The same compound returned a CC50 in “in vitro [6]” of more than 100 µM. Also, in series [3], the EC50 is more than 100 µM.
As to `CCCCCCc1ccc(Nc2cn(C3C=CC(O)C3)c(=O)n(C3C=CC(O)C3)c2=O)cc1` (racemic) [(±)-4d, (±)-1-(4′-hydroxycyclopent-2′-en-1′-yl)-3-(4‴-hydroxycyclopent-2‴-en-1‴-yl)-5-(-((4″-hexylphenyl)amino)uracil], the “biological activity against HCoV OC43 (in words)” value with HCoV-OC43 is on record as “moderate biological activity”. Besides, the values for the EC50 (in the series with HCoV-OC43 (setting [7]); in series [2]; in [3]) were 28.7 µM, more than 100 µM and more than 100 µM, respectively. The CC50 is more than 100 µM in “in vitro [5]”, 51.2 µM in “in vitro [1]” and more than 100 µM in “in vitro [6]”.
The compound `Cc1cc(C)cc(Oc2c[nH]c(=O)[nH]c2=O)c1` [Compound 5a, 5-(3,5-Dimethylphenoxy)uracil] displayed a melting point of 293 to 295 °C. In addition, the EC50 in the series with HCoV-OC43 (setting [8]) was more than 100 µM. The CC50 in “in vitro [5]” was more than 100 µM. Moreover, the CC50 in “in vitro [1]” is more than 100 µM. Further, the EC50 in series [2] is more than 100 µM. In the series “in vitro [6]”, this compound gave a CC50 of more than 100 µM. Also, the EC50 in series [3] was more than 100 µM.
`Cc1cc(C)cc(Oc2cn(C3C=CC(O)C3)c(=O)[nH]c2=O)c1` (racemic) [(±)-10a, (±)-1-(4′-Hydroxycyclopent-2′-en-1′-yl)-5-(3″,5″-dimethylphenoxy)uracil]: the EC50 (in the series with HCoV-OC43 (setting [7]); in series [2]; in series [3]) was more than 100 µM each time. Also, the CC50 in the series “in vitro [5]” was more than 100 µM; in the series “in vitro [1]” it was 33.8 µM; in “in vitro [6]” it was more than 100 µM. For the same compound, the “antiviral activity” value in the series on a variety of RNA viruses is recorded as “did not show any activity”. Besides, the “cytotoxicity” value in series [4] was “marked cytotoxicity”.
Compound `O=c1[nH]cc(N2CCc3ccccc3C2)c(=O)[nH]1` registered a melting point of 311 to 312 °C.
As to `CCCCCCc1ccc(Nc2c[nH]c(=O)[nH]c2=O)cc1` [Compound 2d, 5-((4′-Hexylphenyl)amino)uracil], the melting point is 332 to 333 °C. In the series with HCoV-OC43 (setting [8]), the EC50 was more than 100 µM. The CC50 in “in vitro [5]” was more than 100 µM. This compound also gave a CC50 in “in vitro [1]” of more than 100 µM. In series [2], the EC50 is more than 100 µM. Moreover, the CC50 in “in vitro [6]” was more than 100 µM. In addition, the EC50 in series [3] was more than 100 µM.

The values are drawn from publication PMC9102953, “New Derivatives of 5-Substituted Uracils: Potential Agents with a Wide Spectrum of Biological Activity” (Molecules, 2022).
